This passage reports IC50 results from US9776979B2, “EBI2 modulators” (Sanford-Burnham Medical Research Institute, priority 2013, dated 2017).

Read-outs that look alike come from different tables or passages of the source.

Usually IC50 stands for the concentration needed to halve the response being measured.

The experiment concerns the target EBI2 (Homo sapiens, UniProt P32249). As to the kind of experiment: Cell-based luminescent assay (EBI2 modulation). A digest of the protocol: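 Cells plated overnight at 37° C, then exposed to compound at 4-5 uM final with 80 nM 7a,25-OHC agonist for 60 min at 37° C. Luminescence read after 60 min detection at 25° C in the dark; values normalized to neutral and stimulator controls and plate-pattern corrected.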

Where [1] appears, read: cell-based luminescence, 7a,25-OHC final assay concentration 80 nM, 60 minutes incubation, read-out: IC50.

Chain of EBI2 (P32249 whole entry): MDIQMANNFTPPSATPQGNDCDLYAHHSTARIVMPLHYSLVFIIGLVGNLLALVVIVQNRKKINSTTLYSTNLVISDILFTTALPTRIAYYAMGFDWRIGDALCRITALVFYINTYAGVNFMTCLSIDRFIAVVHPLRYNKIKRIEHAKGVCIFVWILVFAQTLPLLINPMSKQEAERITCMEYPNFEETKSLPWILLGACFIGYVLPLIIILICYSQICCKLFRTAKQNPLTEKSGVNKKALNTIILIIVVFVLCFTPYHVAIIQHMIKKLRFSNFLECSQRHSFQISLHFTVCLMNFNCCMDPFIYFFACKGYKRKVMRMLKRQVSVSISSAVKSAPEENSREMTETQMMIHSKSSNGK

Consider `Cc1ccccc1/C=C/C(=O)N1CCN(S(=O)(=O)c2ccc(C(C)(C)C)cc2)CC1` [Compound C480, (2E)-1-(4-{[4-(tert-butyl)phenyl]sulfonyl}piperazinyl)-3-(2-methylphenyl)prop-2-en-1-one], for which the IC50 under setting [1] is 100 to 500 nM.

For `O=C(/C=C/c1ccc(Br)cc1)N1CCN(Cc2ccc(Cl)cc2)CC1` [Compound D1, (E)-3-(4-bromophenyl)-1-(4-(4-chlorobenzyl)piperazin-1-yl) prop-2-en-1-one], the IC50 was under 100 nM.

In the case of `O=C(/C=C/c1ccc(Cl)c(Cl)c1)N1CCN(Cc2ccc(C(F)(F)F)cc2)CC1` [Compound D3, (2E)-3-(3,4-dichlorophenyl)-1-(4-{[4-(trifluoromethyl)phenyl]methyl}piperazinyl)prop-2-en-1-one], under setting [1], the IC50 is under 100 nM.

Take `Cc1cc(C)c(S(=O)(=O)N2CCN(C(=O)/C=C/c3ccc(Br)cc3)CC2)c(C)c1` [Compound E1, (2E)-3-(4-bromophenyl)-1-{4-[(2,4,6-trimethylphenyl)sulfonyl]piperazinyl} prop-2-en-1-one]: under setting [1], the IC50 is under 100 nM.

`O=C(/C=C/c1ccc(F)cc1)N1CCN(S(=O)(=O)c2ccc(Br)cc2)CC1` [Compound E2, (2E)-1-{4-[(4-bromophenyl)sulfonyl]piperazinyl}-3-(4-fluorophenyl) prop-2-en-1-one]: under setting [1], the IC50 was under 100 nM.

Take `O=C(/C=C/c1ccc(F)cc1)N1CCN(S(=O)(=O)CCc2ccccc2)CC1` [Compound E3, (2E)-3-(4-fluorophenyl)-1-{4-[(2-phenylethyl)sulfonyl]piperazinyl}prop-2-en-1-one]: under setting [1], the IC50 is under 100 nM.

As to `COc1ccc(/C=C/C(=O)N2CCN(S(=O)(=O)c3ccccc3)CC2)cc1` [Compound E4, (2E)-3-(4-methoxyphenyl)-1-[4-(phenylsulfonyl)piperazinyl]prop-2-en-1-one], under setting [1], the half-inhibitory concentration (IC50) is under 100 nM.

For the compound `CC(=O)c1ccc(S(=O)(=O)N2CCN(C(=O)/C=C/c3ccc(Br)cc3F)CC2)cc1` [Compound E5, 4-({4-[(2E)-3-(4-bromo-2-fluorophenyl)prop-2-enoyl]piperazinyl}sulfonyl)-1-acetylbenzene], the IC50 under setting [1] is under 100 nM.

Consider `O=C(/C=C/c1ccc(Br)cc1)N1CCC(CNCc2ccc(C(F)(F)F)cc2)CC1` [Compound F2], for which the IC50 under setting [1] was under 100 nM.

Turning to `O=C(NCC1CCN(C(=O)/C=C/c2ccc(Br)cc2)CC1)c1ccc(C(F)(F)F)cc1` [Compound F3, (E)-N-((1-(3-(4-bromophenyl)acryloyl)piperidin-4-yl)methyl)-4-(trifluoromethyl)benzamide], the IC50 under setting [1] was under 100 nM.

As for “(2E)-1-(4-{[4-(tert-butyl)phenyl]sulfonyl}piperazinyl)-3-(4-bromophenyl)prop-2-en-1-one [Compound C150]”, the half-inhibitory concentration (IC50) under setting [1] is under 100 nM.

With “(2E)-1-[4-(2-(1,3-dihydroisobenzofuran-5-yl)ethyl)piperazinyl]-3-phenylprop-2-en-1-one [Compound C362]”, the IC50 under setting [1] is under 100 nM.

With “(2E)-1-[4-(diphenylmethyl)piperazinyl]-3-(4-bromo-2-fluorophenyl)prop-2-en-1-one [Compound C24]”, the 50% inhibitory concentration (IC50) under setting [1] was under 100 nM.

Regarding “(2E)-1-[4-(diphenylmethyl)piperazinyl]-3-(4-bromophenyl)prop-2-en-1-one [Compound C27]”, the IC50 under setting [1] is under 100 nM.

With “(2E)-1-[4-({[(3,5-difluorophenyl)methyl]amino}methyl)piperidyl]-3-(4-bromophenyl)prop-2-en-1-one [Compound C54]”, the concentration for half-maximal inhibition (IC50) under setting [1] was under 100 nM.

Consider “(2E)-1-{4-[2-(2-fluorophenyl)ethyl]piperazinyl}-3-phenylprop-2-en-1-one [Compound C361]”, for which, under setting [1], the IC50 is under 100 nM.

As for “(2E)-1-{4-[(2,4-difluorophenyl)carbonyl]piperazinyl}-3-(4-bromophenyl)prop-2-en-1-one [Compound C46]”, under setting [1], the IC50 was under 100 nM.

Turning to “(2E)-1-{4-[(2,5-difluorophenyl)methyl]piperazinyl}-3-phenylprop-2-en-1-one [Compound C350]”, the IC50 under setting [1] is under 100 nM.

Consider “(2E)-1-{4-[(2,5-dimethoxyphenyl)sulfonyl]piperazinyl}-3-(4-fluorophenyl)prop-2-en-1-one [Compound C318]”, for which the IC50 under setting [1] is under 100 nM.

For “(2E)-1-{4-[(2-methylphenyl)methyl]piperazinyl}-3-phenylprop-2-en-1-one [Compound C394]”, under setting [1], the half-maximal inhibitory concentration (IC50) lay within 100 to 500 nM.

Turning to “(2E)-1-{4-[(3,5-dimethylphenyl)methyl]piperazinyl}-3-phenylprop-2-en-1-one [Compound C340]”, the IC50 under setting [1] is under 100 nM.

Consider “(2E)-1-{4-[(3-methoxyphenyl)methyl]piperazinyl}-3-phenylprop-2-en-1-one [Compound C379]”, for which the half-inhibitory concentration (IC50) under setting [1] is under 100 nM.

For “(2E)-1-{4-[(3-nitrophenyl)methyl]piperazinyl}-3-phenylprop-2-en-1-one [Compound C387]”, the IC50 under setting [1] is under 100 nM.

For the compound “(2E)-1-{4-[(4-bromophenyl)sulfonyl]piperazinyl}-3-(4-chloro-2-fluorophenyl)prop-2-en-1-one [Compound C388]”, the IC50 under setting [1] was under 100 nM.

For the compound “(2E)-3-(4-bromophenyl)-1-(4-heptanoylpiperazinyl)prop-2-en-1-one [Compound C80]”, the IC50 under setting [1] was under 100 nM.

“(2E)-3-(4-bromophenyl)-1-[4-({[(4-chlorophenyl)methyl]amino}methyl)piperidyl]prop-2-en-1-one [Compound C74]”: under setting [1], the IC50 was under 100 nM.

For “(2E)-3-(4-bromophenyl)-1-[4-({[(4-fluorophenyl)methyl]amino}methyl)piperidyl]prop-2-en-1-one [Compound C47]”, under setting [1], the IC50 was under 100 nM.

Take “(2E)-3-(4-bromophenyl)-1-{4-[({[3-fluoro-4-(trifluoromethyl)phenyl]methyl}amino)methyl]piperidyl} prop-2-en-1-one [Compound C121]”: the 50% inhibitory concentration (IC50) under setting [1] is under 100 nM.

Turning to “(2E)-3-(4-ethoxyphenyl)-1-[4-(phenylsulfonyl)piperazinyl]prop-2-en-1-one [Compound C313]”, the IC50 under setting [1] was under 100 nM.

As to “(2E)-3-(4-fluorophenyl)-1-[4-(naphthylsulfonyl)piperazinyl]prop-2-en-1-one [Compound C345]”, under setting [1], the IC50 was under 100 nM.

As for “(2E)-3-phenyl-1-[4-(4-pyridylmethyl)piperazinyl]prop-2-en-1-one [Compound C466]”, the IC50 under setting [1] lay within 100 to 500 nM.

Take “(2E)-3-phenyl-1-[4-benzylpiperazinyl]prop-2-en-1-one [Compound C337]”: the IC50 under setting [1] is under 100 nM.

Turning to “(2E)-3-phenyl-1-piperazinylprop-2-en-1-one [Compound C444]”, the IC50 under setting [1] lay within 100 to 500 nM.

On to “N-(4-bromophenyl){4-[(5-chloroindol-2-yl)carbonyl]piperazinyl}carboxamide [Compound C445]”, for which the 50% inhibitory concentration (IC50) under setting [1] is 100 to 500 nM.

Consider “benzo[d]furan-2-yl 4-(phenylethyl)piperazinyl ketone [Compound C405]”, for which the IC50 under setting [1] was in the range of 100 to 500 nM.

As to “piperazinyl 5-nitroindol-2-yl ketone [Compound C134]”, under setting [1], the IC50 was under 100 nM.

As to “tert-butyl 4-(indol-2-ylcarbonyl)piperazinecarboxylate [Compound C414]”, the IC50 under setting [1] fell in the range of 100 to 500 nM.

With “{1-[(5-chloroindol-2-yl)carbonyl](4-piperidyl)}(4-chlorophenyl) [Compound C462]”, the IC50 under setting [1] lay in the range of 100 to 500 nM.
